Source: US20210187013A1, “Methods of Treating and Preventing Cancer by Disrupting the Binding of Copper in the Map Kinase Pathway” (DUKE UNIVERSITY, priority 2012, published 2021)

Key:
[1] = test system: Erk1/2 phosphorylation in Drosophila S2 cells; assay: Insulin-stimulated Erk1/2 phosphorylation in S2 cells after preincubation with chelator or silver (immunoblot); assay type: cell-based; conditions: then human insulin 25 μg/mL
Description: The copper transporter Ctr1 was identified as one of approximately 300 genes that when knocked down in S2 insect cells reduced phosphorylation of Erk (see, e.g., Friedman, A. and Perrimon, N. (2006) Nature 444:230-234). To explore whether both Ctr11 and the associated Cu^+ transport function are important for Ras signaling to Erk1/2, Cu^+-specific chelation was used to impose copper deficiency on cultured fly S2 cells, S2 cells used for the no-treatment and insulin-only treatment conditions were left in basal medium (Schneider's medium with 10% fetal bovine serum) during the preincubation. S2 cells used for the other treatment conditions were preincubated for 1 hour with chelator or silver as follows: 10 μM tetrathiomolybdate (TTM) and 250 μM bathocupronine disulfonate (BCS) for copper chelation experiments, 10 μM ferrozine, and 250 μM bathophenanthroline disulfonate (BPS) for iron chelation, and 10 μM silver nitrate. Cells were stimulated with human insulin at a concentration of 25 μg/mL of medium. […] (FIG. 3A). […] (FIG. 3B). […] (FIG. 3C).

[2] = target: T1, recombinant GST-tagged human Mek1 (Homo sapiens, UniProt Q02750); assay: Mek1 in vitro kinase assay (phosphorylation of kinase-dead Erk2); assay type: biochemical
T1 construct: made in house; host or cells: E. coli BL21(DE3)
Method: Mek1 requires copper for kinase activity in vitro (FIG. 8 and Turski, M. L. et al. (2012), supra). To determine the role copper plays in the stimulation of Mek1-dependent phosphorylation of Erk1/2, a series of in vitro experiments were carried out. For these experiments, purified human Mek1 protein was incubated with a kinase-dead isoform of hErk2 so that assessment of Erk2 phosphorylation mediated by Mek1 could be made in the absence of Erk2 autophosphorylation. Seger, R. et. al. (1991) Proc. Natl. Acad. Sci. U.S.A. 88:6142-6146.
Human Erk2 and human Mek1 were obtained from Addgene and cloned into pGEX4T3 and pGEX6P1 from GE Life Sciences, respectively. Recombinant GST-human Erk2 (hErk2) and GST-human Mek1 (hMek1) were purified from BL21(DE3) bacteria as previously described. […] The concentration was determined using the Bio-Rad DC protein assay (Bio-Rad, Hercules, United States).
Modified version of Mek1 and Erk2 in vitro kinase assay were performed as described previously. […] Reactions were quenched with 5× Laemmli buffer, and a third of the reaction mixture was analyzed by SDS-PAGE via subsequent Western blotting with phosphospecific antibodies. […] Reactions were quenched with 5× Laemmli buffer, and a third of the reaction mixture was analyzed by SDS-PAGE via Western blotting with phosphospecific antibodies.

[3] = Cu2+ affinity of ligands used in the PAR competition study; assay type: physicochemical; conditions: 1:1 complex
Method: To obtain a precise binding affinity, a series of ligand competition studies using PAR were conducted. PAR is a chromogenic chelator forming colored complexes with metal ions. Cu^2+ binding affinity for Mek1 was estimated using competition experiments similar to those described in Zimmermann, M. et. al. (2009) Biochemistry 48:11640-11654, with the divalent metal ligand PAR [4-(2-pyridylazo)resorcinol]. The quantitative release of the 1:1 Cu^2+-/PAR complex on titration of apo-Mek1 was monitored spectrophotometrically at 500 nm (DU 600 spectrophotometer, Beckman Coulter, Brea, United States) in 20 mM Tris (pH 7.2)-100 mM NaCl.
Bidentate PAR forms a 1:1 complex with Cu^2+.
Control titrations under the same pH and ionic strength buffer conditions were performed with EDTA and bovine serum albumin (BSA) to validate the Cu^2+-PAR titration study. Both EDTA and BSA are spectrally silent, with known dissociation constants. EDTA also served to calibrate Cu^2+-PAR affinity relative to the reaction condition used for the experiments.

[4] = test system: BRaf^V600E-transformed MEFs; assay: Tumor growth in mice injected with BRaf^V600E-transformed MEFs; assay type: in vivo; conditions: 2 mg/day oral TM
Description: FIGS. 12A-12C are graphs showing that copper is required for BRaf^V600E-driven tumorigenesis.
Copper is provided primarily through diet. […] Similar copper-reducing strategies may even hold promise as a way to preemptively reduce the incidence of melanoma in high-risk populations. In this regards, there are well-established approaches to regulate the level of copper in humans. Specifically, Wilson's Disease is characterized by a mutation in the copper-transporting gene ATP7B that results in elevated levels of copper in the body (see, e.g., Das, S. K. and Ray, K. (2006) Nat. Clin. Pract. Neurol. 2:482-493). This disease is treated by first lowering copper levels with copper chelators D-penicillamine, trientine or investigative drugs such as ammonium tetrathiomolybdate (TM). Copper levels are then maintained by a copper-restricted diet (e.g., avoidance of copper-rich foods such as shellfish, nuts, chocolate, liver and cooking in copperware) and either zinc acetate, to block copper absorption, or low dose copper chelators (see, e.g., Das, S. K. and Ray, K. (2006), supra). To evaluate if reducing dietary copper could negatively impact melanoma, mice injected with BRaf^V600E-transformed MEFs were either untreated as a control or treated with oral TM to chelate dietary copper.

[5] = test system: Erk1/2 phosphorylation in mouse embryonic fibroblasts (MEFs); assay: Insulin-stimulated Erk1/2 phosphorylation in Ctr1+/+ and Ctr1−/− MEFs; assay type: cell-based
Method: Ctr1^+/+ and Ctr1^−/− mouse embryonic fibroblasts (MEFs) and insulin or fibroblast growth factor (FGF) stimulation experiments. To determine whether copper plays a role in the activation of Erk1/2, which is phosphorylated by Mek1, Ctr1^+/+ and Ctr1^−/− mouse embryonic fibroblasts (MEFs) were evaluated for insulin-stimulated ERK1/2 phosphorylation. Isolation and culture of Ctr1^+/+ and Ctr1^−/− cells were done as described in Lee, J. et al. (2002) J. Biol. Chem. 30:322-329. Insulin or fibroblast growth factor (FGF) stimulation experiments were done with plates measuring […], with one plate per time point. Cells were allowed to reach ˜95% confluence and then serum starved for 16 to 48 hours. Recombinant human insulin (Invitrogen, Carlsbad, United States) was added at a final concentration of 200 nM, and recombinant human basic FGF (Invitrogen, Carlsbad, United States) was added at a final concentration of 10 ng/ml, with the exception of the time zero plate. […]

[6] = S2 cells preincubated 1 hour with 10 μM agent
[7] = S2 cells preincubated 1 hour with 250 μM agent

T1 sequence (Q02750 whole entry): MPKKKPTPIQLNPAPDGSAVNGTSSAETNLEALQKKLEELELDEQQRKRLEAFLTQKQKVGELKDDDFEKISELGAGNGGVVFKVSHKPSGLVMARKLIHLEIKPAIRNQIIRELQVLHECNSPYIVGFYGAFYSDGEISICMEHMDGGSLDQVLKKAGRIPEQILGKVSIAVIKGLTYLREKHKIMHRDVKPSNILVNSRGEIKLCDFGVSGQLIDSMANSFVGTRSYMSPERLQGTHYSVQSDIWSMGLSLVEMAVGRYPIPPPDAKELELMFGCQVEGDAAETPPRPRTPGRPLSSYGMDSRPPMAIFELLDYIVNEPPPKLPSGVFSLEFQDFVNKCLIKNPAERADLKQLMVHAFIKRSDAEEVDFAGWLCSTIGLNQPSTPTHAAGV

Molecule: O=[N+]([O-])[O-].[Ag+] [Ag, silver nitrate]
- insulin-stimulated Erk1/2 phosphorylation [1, 6]: clearly diminished the levels of insulin-stimulated Erk1/2 phosphorylation

Molecule: Cc1cc(-c2ccc(S(=O)(=O)O)cc2)c2ccc3c(-c4ccc(S(=O)(=O)O)cc4)cc(C)nc3c2n1 [BCS, bathocupronine disulfonate]
- insulin-stimulated Erk1/2 phosphorylation [1, 7]: reduced the levels of insulin-stimulated Erk1/2 phosphorylation

Molecule: O=S(=O)([O-])[O-].[Cu+2] [CuSO4]
- Mek1 kinase activity, times greater ([2]; 2.5 μM CuSO4, 22° C., 30 minutes): ~20 times

Molecule: Oc1ccc(N=Nc2ccccn2)c(O)c1 [PAR, 4-(2-pyridylazo)resorcinol]
- affinity of Cu2+-PAR complex (formation constant β) [3]: 3.2×10^17

Molecule: [NH4+].[NH4+].[SH-].[SH-].[S]=[Mo]=[S] [TM, ammonium tetrathiomolybdate]
- tumor size versus control tumors at termination of the experiment [4]: nearly five times smaller than the control tumors

Molecule: [SH-].[SH-].[S]=[Mo]=[S] [TTM, tetrathiomolybdate, reference compound]
- insulin-stimulated Erk1/2 phosphorylation [1, 6]: reduced the levels of insulin-stimulated Erk1/2 phosphorylation
- Mek1 kinase activity in the presence of 2.5 μM CuSO4 ([2]; 50 μM TTM in the presence of CuSO4): blunted

Molecule: [Cu] [copper]
- insulin-stimulated Erk1/2 phosphorylation ([5]; Ctr1+/+ cells, copper added): No additional stimulation was observed
- insulin-stimulated Erk1/2 phosphorylation ([5]; Ctr1−/− MEFs preincubated with 25 μM copper for 1 hour prior to insulin stimulation): increased insulin-stimulated Erk1/2 phosphorylation, though not to the same levels as Ctr1^+/+ MEFs

Molecule: O=S(=O)([O-])c1ccc(-c2nnc(-c3ccccn3)nc2-c2ccc(S(=O)(=O)[O-])cc2)cc1.[Na+].[Na+] [ferrozine]
- insulin-stimulated Erk1/2 phosphorylation [1, 6]: did not reduce insulin-stimulated Erk1/2 phosphorylation

Molecule: bathophenanthroline disulfonate [BPS]
- insulin-stimulated Erk1/2 phosphorylation [1, 7]: did not reduce insulin-stimulated Erk1/2 phosphorylation
